The values below come from PMC3689634, “Self-assembled peptide amphiphiles function as multivalent binder with increased hemagglutinin affinity” (BMC Biotechnology, 2013).

The subject of assay [1] is HA receptor (hemagglutinin). Conditions: monovalent binding; cited from earlier work.
Assay [2] deals with hemagglutinin H5 (HA1 aa 17–338, A/chicken/Jilin/9/2004 (H5N1)). In kind it is binding, influenza A virus (H5N1). The note with it: pH 7.4.

“Also recorded” adds a separate entry of the source.

For the compound `CC(=O)N[C@H]1[C@H]([C@H](O)[C@H](O)CO)OC(O)(C(=O)O)C[C@@H]1O` (some centres unmarked) [SA, sialic acid], in assay [1], the “association constant, single SA molecule to a single HA receptor” value was 10^3 M^-1.
Turning to C16-GSWGEW [negative control], the “SPR binding signal to immobilised H5 (in words)” value in assay [2] is “no binding affinity; also recorded: no quantitative measurable signal changes”.
